How the values were obtained:
[1] = In vitro drug release in 1 % SDS (dialysis, HPLC); format: physicochemical; conditions: release from W/HPDA/L, 1 % SDS pH 6.5–6.8
Experimental: Five compounds were measured by HPLC at 0.5, 1, 2, 4, 8, 12 and 24 h. In order to elucidate the release mechanism of W/HPDA/L, release kinetic models (Ritger-Peppas model) were employed to fit the data available.

[2] = Adsorption kinetic model fitting of the five components on the carrier; format: physicochemical; set-up: k, pseudo-first order: unit not given beside the values
Experimental: Preparation of W/HPDA/L nanoparticles: Briefly, 0.5 mL of TEOS were added over a stirred solution of 2 mL of NH3∙H2O solution in 100 mL of ethanol. The reaction mixture was vigorously stirred at room temperature for 3 h to obtain SiO2 nanoparticles. Then, 1.5 mL of APTES were dropped to the reaction mixture. Finally, SiO2-NH2 nanoparticles were collected by centrifugation at 10000 rpm for 10 min, then washed twice with ethanol and resuspended in ethanol for further use. As for the preparation of W@SiO2 nanoparticles, 1 mL of SiO2-NH2 nanoparticles and 4 mL of water components solution (1 mg RA and 12 mg SAB) were first mixed together. Under stirring for 12 h, the resultant W@SiO2 nanoparticles were acquired by centrifugation (10000 rpm, 10 min) and washed thrice with DI water. The total content of water-soluble in the supernatant (free RA and SAB) were determined by HPLC. W@SiO2 nanoparticles obtained by centrifugation were resuspended with Tris-HCl solution containing dopamine hydrochloride. PDA was prepared according to our precious report. This was followed by the addition of 2 mL of etching solution. Then, through centrifugation (12000 rpm, 5 min) and washing with ultrapure water three times, W/HPDA nanoparticles were acquired for later use. After dissolving 6 mg of lipid-soluble components (1 mg CPT, 2.5 mg TSI and 2.5 mg TSA) in 4 mL of ethanol, it was added to 1 mL of W/HPDA nanoparticles dispersed solution. After 12 h of stirring at room temperature, W/HPDA/L nanoparticles were collected by centrifugation and subsequently dispersed in water for further use. Similarly, HPDA was synthesized as previously described. 13 mg of water-soluble components solution (1 mg RA and 12 mg SAB) and 6 mg of lipid-soluble components (1 mg CPT, 2.5 mg TSI and 2.5 mg TSA) were dissolved in 4 mL PBS containing 0.1 % DMSO and added to 3 mL HPDA aqueous dispersion. The mixture was then stirred at room temperature for 12 h, centrifuged, and washed to obtain HPDA/WL nanoparticles. The total content of lipid-soluble in the supernatant (free CPT, TSI and TSA) were determined by HPLC.
An adsorption kinetic model was used to fit the effect of adsorption time on the adsorption performance of adsorbents, further speculating the mechanism of adsorption. The results of the adsorption kinetics of five components were fitted using the pseudo-first-order and pseudo-second-order model, respectively.

[3] = test system: ZO-1; assay: ZO-1 tension by FRET-based tension probes in bEnd.3 cells; format: cell-based; conditions: 15 min treatment, then removal and 15 min observation
Experimental: (§1) 6 × 10^4 bEnd.3 cells were seeded in the donor chamber of 24-well transwell inserts. […] The viability of bEnd.3 cells following borneol treatment was assessed using the Cell Counting Kit-8 (CCK-8) assay. We added 0.9 mL of PBS-based assay medium to blank 24-well culture plates and 0.2 mL of borneol (0, 100, 400 μM) to the apical side of the BBB layers. TEER was measured at 5, 10, and 15 min. Additionally, 100 nm silica nanoparticles and sodium fluorescein at the same concentrations were administered at three time points. […] The intracellular tension of the tight junction protein ZO-1 was evaluated using fluorescence resonance energy transfer (FRET)-based tension probes and cpstFRET analysis, as previously described. bEnd.3 cells were transfected with ZO-1 probes and incubated with 1000 μg/mL geneticin. After treating the cells with borneol for 15 min, the borneol was removed, and observations continued for an additional 15 min. Cells treated with Hanks' solution served as the control group. The cell images were taken with × 63 oil lens on a confocal microscope (SP5; Leica, Wetzlar, Germany). The CFP/FRET ratio was calculated using the equation 1/E = cerulean donor/venus acceptor.

[4] = test system: bEnd.3 cells; assay: In vitro BBB permeability (bEnd.3 transwell model); format: cell-based; conditions: 100 and 400 μmol borneol
Experimental: as §1, with “TEER was measured at 5, 10, and 15 min.” left out, “cpstFRET” left out

[5] = test system: bEnd.3 cells; assay: Viability of bEnd.3 cells following borneol treatment (CCK-8); format: cell-based; conditions: 5 to 500 μmol/l
Experimental: as §1

Row | Qe, pseudo-first order [2] [mg/g] | Qe, pseudo-second order [2] [mg/g] | Time at which maximum BBB permeability is reached [4] [min] | Compound | Ritger-Peppas release exponent n [1] | Ritger-Peppas release model coefficient (y = k t^n) [1] | k, pseudo-first order [2] | k, pseudo-second order [2] | ZO1 tension (CFP/FRET) [3] | Cytotoxic effects on bEnd.3 cells [5]
1 |  |  |  | N[C@@H](CCC(=O)O)C(=O)O [Glu, Glutamate, reference compound] |  |  |  |  | increased and continued to rise even 15 min after Glu removal | 
2 | 6.23 | 7.78 |  | O=C(/C=C/c1ccc(O)c(O)c1)O[C@H](Cc1ccc(O)c(O)c1)C(=O)O [RA, rosmarinic acid] | n = 0.83 | y = 6.28t^n | 0.29 | 0.03 |  | 
3 | 18.27 | 21.95 |  | O=C(/C=C/c1ccc(O)c2c1[C@H](C(=O)O[C@H](Cc1ccc(O)c(O)c1)C(=O)O)[C@@H](c1ccc(O)c(O)c1)O2)O[C@H](Cc1ccc(O)c(O)c1)C(=O)O [SAB, salvianolic acid B] | n = 0.78 | y = 8.41t^n | 0.27 | 0.01 |  | 
4 | 4.14 | 4.74 |  | Cc1coc2c1C(=O)C(=O)c1c-2ccc2c1CCCC2(C)C [TSA, tanshinone IIA] | n = 0.37 | y = 24.68t^n | 0.89 | 0.21 |  | 
5 | 4.50 | 5.21 |  | Cc1coc2c1C(=O)C(=O)c1c-2ccc2c(C)cccc12 [TSI, tanshinone I] | n = 0.35 | y = 27.02t^n | 0.53 | 0.16 |  | 
6 |  |  | 10 | CC1(C)C2CCC1(C)C(O)C2 (stereo not shown) [borneol] |  |  |  |  | increased but decreased after 15 min of borneol removal | no cytotoxic effects

Row | Compound | Qe, pseudo-first order [2] [mg/g] | Qe, pseudo-second order [2] [mg/g] | Time at which maximum BBB permeability is reached [4] [min] | Ritger-Peppas release exponent n [1] | Ritger-Peppas release model coefficient (y = k t^n) [1] | k, pseudo-first order [2] | k, pseudo-second order [2] | ZO1 tension (CFP/FRET) [3] | Cytotoxic effects on bEnd.3 cells [5]
7 | C[C@H]1COC2=C1C(=O)C(=O)c1c2ccc2c1CCCC2(C)C [CPT, cryptotanshinone] | 4.60 | 5.06 |  | n = 0.39 | y = 19.26t^n | 0.76 | 0.14 |  | 

From paper PMC12311606, “An efficient brain delivery system co-loaded with multiple components of Salvia miltiorrhiza for synergistic treatment of ischemic stroke” (Materials Today Bio, 2025)
